ChEMBL document CHEMBL5724914, “Linking interpersonal differences in gut microbiota composition and drug biotransformation activity” (2024)

How the values were obtained:
[1] = The drug is tested on Z-030 corresponding to mouse gut metagenome with ENA study accession number: PRJEB37062 and ENA sample accession number: ERS12561829 for biotransformation under anaerobic condition. The drug concentrations were measured over 9 timepoints collected between 0 and 24 hours of incubation by liquid-chromatography-coupled mass spectrometry (LC–MS); details: 2 µM
[2] = The drug is tested on Z-012 corresponding to metagenome with ENA study accession number: PRJEB37062 and ENA sample accession number: ERS12561812 for biotransformation under anaerobic condition. The drug concentrations were measured over 9 timepoints collected between 0 and 24 hours of incubation by liquid-chromatography-coupled mass spectrometry (LC–MS); details: 2 µM
[3] = The drug is tested on Z-004 corresponding to metagenome with ENA study accession number: PRJEB37062 and ENA sample accession number: ERS12561804 for biotransformation under anaerobic condition. The drug concentrations were measured over 9 timepoints collected between 0 and 24 hours of incubation by liquid-chromatography-coupled mass spectrometry (LC–MS); details: 2 µM
[4] = The drug is tested on WLS-090 corresponding to human gut metagenome with ENA study accession number: PRJEB37062 and ENA sample accession number: ERS12561753 for biotransformation under anaerobic condition. The drug concentrations were measured over 9 timepoints collected between 0 and 24 hours of incubation by liquid-chromatography-coupled mass spectrometry (LC–MS); details: 2 µM
[5] = The drug is tested on WLS-027 corresponding to human gut metagenome with ENA study accession number: PRJEB37062 and ENA sample accession number: ERS12561744 for biotransformation under anaerobic condition. The drug concentrations were measured over 9 timepoints collected between 0 and 24 hours of incubation by liquid-chromatography-coupled mass spectrometry (LC–MS); details: 2 µM
[6] = human gut metagenome, 24 h, 2 µM
[7] = human gut metagenome, 24 h, 2 µM; remark: listed apart in the source
[8] = human gut metagenome, 24 h, 2 µM; remark: listed apart in the source
[9] = human gut metagenome, 24 h, 2 µM; remark: listed apart in the source
Note: call rule not given here.

Compound | Bacterial Biotransformation [1] | Bacterial Biotransformation [2] | Bacterial Biotransformation [3] | Bacterial Biotransformation [4] | Bacterial Biotransformation [5] | Bacterial Biotransformation [6] | Bacterial Biotransformation [7] | Bacterial Biotransformation [8] | Bacterial Biotransformation [9]
CC(=O)OCC(=O)[C@@]12N=C(C)O[C@@H]1C[C@H]1[C@@H]3CCC4=CC(=O)C=C[C@]4(C)[C@H]3[C@@H](O)C[C@@]12C [DEFLAZACORT] | Compound metabolized | Compound metabolized | Compound metabolized | Compound metabolized | Compound metabolized | Compound metabolized | Compound metabolized | Compound metabolized | Compound metabolized
CN(C)CC(c1ccc(O)cc1)C1(O)CCCCC1.O=C(O)CCC(=O)O (stereo unspecified) [DESVENLAFAXINE SUCCINATE] | Compound NOT metabolized | Compound NOT metabolized | Compound NOT metabolized | Compound NOT metabolized | Compound NOT metabolized | Compound NOT metabolized | Compound NOT metabolized | Compound NOT metabolized | Compound NOT metabolized
CN1CCN(C(=O)O[C@H]2c3nccnc3C(=O)N2c2ccc(Cl)cn2)CC1 [ESZOPICLONE] | Compound NOT metabolized | Compound NOT metabolized | Compound NOT metabolized | Compound NOT metabolized | Compound NOT metabolized | Compound NOT metabolized | Compound NOT metabolized | Compound NOT metabolized | Compound NOT metabolized
O=C1[C@H](CC[C@H](O)c2ccc(F)cc2)[C@@H](c2ccc(O)cc2)N1c1ccc(F)cc1 [EZETIMIBE] | Compound NOT metabolized | Compound NOT metabolized | Compound NOT metabolized | Compound metabolized | Compound NOT metabolized | Compound metabolized | Compound NOT metabolized | Compound NOT metabolized | Compound metabolized
CC(C)OC(=O)C(C)(C)Oc1ccc(C(=O)c2ccc(Cl)cc2)cc1 [FENOFIBRATE] | Compound metabolized | Compound metabolized | Compound metabolized | Compound metabolized | Compound metabolized | Compound metabolized | Compound metabolized | Compound metabolized | Compound metabolized
O=C1NCC2(CCN(CCc3ccccc3)CC2)O1 [FENSPIRIDE] | Compound NOT metabolized | Compound NOT metabolized | Compound NOT metabolized | Compound NOT metabolized | Compound NOT metabolized | Compound NOT metabolized | Compound metabolized | Compound NOT metabolized | Compound NOT metabolized
OC(Cn1cncn1)(Cn1cncn1)c1ccc(F)cc1F [FLUCONAZOLE] | Compound NOT metabolized | Compound NOT metabolized | Compound NOT metabolized | Compound metabolized | Compound metabolized | Compound NOT metabolized | Compound metabolized | Compound metabolized | Compound NOT metabolized
CNCCC(Oc1ccc(C(F)(F)F)cc1)c1ccccc1 (stereo unspecified) [FLUOXETINE] | Compound NOT metabolized | Compound NOT metabolized | Compound NOT metabolized | Compound NOT metabolized | Compound NOT metabolized | Compound NOT metabolized | Compound NOT metabolized | Compound NOT metabolized | Compound NOT metabolized
O=C(CCCN1CCC(O)(c2ccc(Cl)cc2)CC1)c1ccc(F)cc1 [HALOPERIDOL] | Compound NOT metabolized | Compound NOT metabolized | Compound NOT metabolized | Compound metabolized | Compound metabolized | Compound NOT metabolized | Compound NOT metabolized | Compound NOT metabolized | Compound NOT metabolized
CCCCC1=NC2(CCCC2)C(=O)N1Cc1ccc(-c2ccccc2-c2nnn[nH]2)cc1 [IRBESARTAN] | Compound NOT metabolized | Compound NOT metabolized | Compound metabolized | Compound metabolized | Compound metabolized | Compound metabolized | Compound metabolized | Compound metabolized | Compound metabolized
NC(CO)(CO)CO.O=C(c1ccccc1)c1ccc2n1CCC2C(=O)O (stereo unspecified) [KETOROLAC TROMETHAMINE] | Compound NOT metabolized | Compound NOT metabolized | Compound NOT metabolized | Compound metabolized | Compound metabolized | Compound metabolized | Compound metabolized | Compound metabolized | Compound metabolized
CC[C@H](C)C(=O)O[C@H]1C[C@@H](C)C=C2C=C[C@H](C)[C@H](CC[C@@H]3C[C@@H](O)CC(=O)O3)[C@H]21 [LOVASTATIN] | Compound metabolized | Compound NOT metabolized | Compound NOT metabolized | Compound NOT metabolized | Compound NOT metabolized | Compound NOT metabolized | Compound NOT metabolized | Compound metabolized | Compound NOT metabolized
CNC(=C[N+](=O)[O-])NCCSCc1csc(CN(C)C)n1 [NIZATIDINE] | Compound metabolized | Compound NOT metabolized | Compound NOT metabolized | Compound NOT metabolized | Compound NOT metabolized | Compound metabolized | Compound metabolized | Compound metabolized | Compound metabolized
COc1ccc2[nH]c([S+]([O-])Cc3ncc(C)c(OC)c3C)nc2c1 (stereo unspecified) [OMEPRAZOLE] | Compound metabolized | Compound NOT metabolized | Compound metabolized | Compound metabolized | Compound metabolized | Compound metabolized | Compound metabolized | Compound metabolized | Compound metabolized
